Experimental data as given in patent US8106046B2, “Cyclopentathiophene modulators of the glucocorticoid receptor, AP-1, and/or NF-κB activity and use thereof” (Bristol-Myers Squibb Company, priority 2008, dated 2012).
Like-named read-outs stand apart in the source and are kept apart here.

Tests used:
[1] = test system: AP-1 induced transcriptional activity; test: Cellular Transrepressional Assay (AP-1 luciferase reporter in A549 cells, PMA activated); assay type: cell-based; settings: 10 ng/ml PMA, 7 hours; for AP-1 Max % inh (Cellular Transrepression Assay): maximum inhibition; for EC50: read-out: AP-1 EC50, nM (Cellular Transrepression Assay)
Protocol: To measure the ability of test molecules to inhibit AP-1 induced transcriptional activity we utilized an A549 cell which was stably transfected with a plasmid containing 7×AP-1 DNA binding sites (pAP-1-Luc plasmid, Stratagene Co. La Jolla, Calif.) followed by the gene for luciferase. Cells were activated with 10 ng/ml of phorbol myristic acid (PMA) plus or minus test molecules for 7 hours. After 7 hours a luciferase reagent was added to measure luciferase enzymatic activity in the cell. After a 10 minute incubation of luciferase reagent with cells, luminescence was measured in a TopCount luminescence counter. Repression of AP-1 activity was calculated as the percentage decrease in the signal induced by PMA alone. Test molecules were analyzed in the concentration range from 0.1 nM to 40 μM. EC50s were determined by using standard curve fitting methods such as Excel fit (Microsoft Co.). An EC50 is the test molecule concentration at which there is a 50% repression of the maximal inhibition of transcription, i.e., a 50% reduction of AP-1 activity.

[2] = molecular target: T1, human glucocorticoid receptor (Homo sapiens, UniProt P04150); test: Glucocorticoid Receptor Binding Assay (I), fluorescence polarization competitor assay; settings: purified human recombinant full-length GR, Fluormone GS Red
T1 construct: purified human recombinant full-length glucocorticoid receptor (2 nM); purchased Invitrogen Part #2893
T1 sequence (P04150 1-777): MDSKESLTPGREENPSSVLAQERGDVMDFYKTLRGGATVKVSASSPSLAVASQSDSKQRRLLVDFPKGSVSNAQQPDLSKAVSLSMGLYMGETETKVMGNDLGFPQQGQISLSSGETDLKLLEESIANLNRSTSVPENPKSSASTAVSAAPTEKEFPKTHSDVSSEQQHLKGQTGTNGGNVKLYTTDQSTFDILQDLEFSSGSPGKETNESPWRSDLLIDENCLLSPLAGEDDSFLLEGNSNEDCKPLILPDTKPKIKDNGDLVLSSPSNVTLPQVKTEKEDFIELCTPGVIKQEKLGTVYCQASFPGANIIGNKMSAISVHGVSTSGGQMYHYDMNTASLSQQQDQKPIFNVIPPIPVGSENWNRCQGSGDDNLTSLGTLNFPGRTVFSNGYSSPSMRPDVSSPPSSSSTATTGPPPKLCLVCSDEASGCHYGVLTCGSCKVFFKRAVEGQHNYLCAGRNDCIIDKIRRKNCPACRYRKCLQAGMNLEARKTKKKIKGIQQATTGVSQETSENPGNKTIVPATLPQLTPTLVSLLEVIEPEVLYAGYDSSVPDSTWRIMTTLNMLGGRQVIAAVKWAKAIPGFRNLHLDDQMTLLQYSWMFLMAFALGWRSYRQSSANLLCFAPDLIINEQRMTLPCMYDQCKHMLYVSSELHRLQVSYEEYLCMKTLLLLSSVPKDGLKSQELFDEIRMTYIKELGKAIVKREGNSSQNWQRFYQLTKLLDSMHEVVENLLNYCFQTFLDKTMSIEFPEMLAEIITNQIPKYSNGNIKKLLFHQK
Protocol: In order to assess the affinity of test compounds for the human glucocorticoid receptor, a commercially available kit was used (Glucocorticoid Receptor Competitor Assay Kit, Invitrogen Part #2893). Briefly, purified human recombinant full-length glucocorticoid receptor (2 nM) was mixed with fluorescently labeled glucocorticoid (1 nM Fluormone GS Red) in the presence or absence of test compound. After two hour incubation at room temperature in the dark, the fluorescence polarization (FP) of the samples was measured. The FP of a mixture of receptor, fluorescent probe (i.e., Fluormone GS Red) and 5 μM dexamethasone represented background fluorescence or 100% inhibition, whereas, the FP of the mixture without dexamethasone (but in the presence of vehicle) was taken to be 100% binding. […] Test compounds were analyzed in the concentration range from 8.5E-05 μM to 5 μM.

Row | EC50 [1] | Ki [2] | EC50 ([1]; Homo sapiens) | Structure (SMILES) | AP-1 Max % inh (Cellular Transrepression Assay) [1]
1 | 24.2 nM |  |  | CCN(C)C(=O)c1ccc(-c2cc3c(s2)C[C@](C)(C(=O)Nc2nncs2)[C@@H]3c2ccccc2)cc1F (racemic) [Example 10] | 27.94%
2 | 18.8 nM |  |  | CCN(C)C(=O)c1ccc(-c2cc3c(s2)C[C@](C)(C(=O)Nc2nncs2)[C@@H]3c2ccccc2)cc1 [Example 15] | 53.20%
3 | 63.7 nM |  |  | CN(C)C(=O)c1ccc(-c2cc3c(s2)C[C@](C)(C(=O)Nc2nncs2)[C@@H]3c2ccccc2)cc1Cl [Example 14] | 42.02%
4 |  | 1.8 nM |  | C[C@@]1(C(=O)Nc2nncs2)Cc2sc(Br)cc2[C@@H]1c1ccccc1 [Example 3, (4R,5R)-2-Bromo-5-methyl-4-phenyl-N-(1,3,4-thiadiazol-2-yl)-5,6-dihydro-4H-cyclopenta[b]thiophene-5-carboxamide] | 
5 |  |  | 35 nM | CCN(C)C(=O)c1ccc(-c2cc3c(s2)C[C@](C)(C(=O)Nc2nncs2)[C@@H]3c2ccccc2)cc1 (racemic) [Example 4] | 52.82%
6 |  | 1.9 nM |  | CCN(C)C(=O)c1ccc(-c2cc3c(s2)CC(C)(C(=O)Nc2nncs2)C3c2ccccc2)cc1Cl (racemic) [Example 11] | 
7 |  | 5.3 nM |  | CC1(C(=O)Nc2nncs2)Cc2sc(Br)cc2C1c1ccccc1 (racemic) [Example 1, (+/−)-2-Bromo-5-methyl-4-phenyl-N-(1,3,4-thiadiazol-2-yl)-5,6-dihydro-4H-cyclopenta[b]thiophene-5-carboxamide] | 
8 | 42.1 nM |  |  | C[C@]1(C(=O)Nc2nncs2)Cc2sc(-c3ccc(C(=O)N4CCCC4)cc3)cc2[C@H]1c1ccccc1 (racemic) [Example 8] | 42.74%
9 | 290 nM |  |  | C[C@]1(C(=O)Nc2nncs2)Cc2sc(-c3ccc(C(=O)N4CCCC4)cc3)cc2[C@H]1c1ccccc1 [Example 16] | 56.78%
10 | 34.5 nM |  |  | CC(C)NC(=O)c1nnc(NC(=O)C2(C)Cc3sc(-c4ccc(C(=O)N5CCOCC5)cc4)cc3C2c2ccccc2)s1 (racemic) [Example 22] | 55.76%
11 | 23.9 nM |  |  | C[C@]1(C(=O)Nc2nncs2)Cc2sc(-c3ccc(C(=O)N4CCOCC4)cc3)cc2[C@H]1c1ccccc1 [Example 13] | 50.68%

Continued, molecule first:

Row | Structure (SMILES) | EC50 [1] | Ki [2] | EC50 ([1]; Homo sapiens) | AP-1 Max % inh (Cellular Transrepression Assay) [1]
12 | C[C@@]1(C(=O)Nc2nncs2)Cc2sc(-c3ccc(C(=O)N4CCOCC4)cc3)cc2[C@@H]1c1ccccc1 [Example 18] | 27.3 nM |  |  | 29.81%
13 | C[C@]1(C(=O)Nc2nncs2)Cc2sc(Br)cc2[C@H]1c1ccccc1 [Example 2, (4S,5S)-2-Bromo-5-methyl-4-phenyl-N-(1,3,4-thiadiazol-2-yl)-5,6-dihydro-4H-cyclopenta[b]thiophene-5-carboxamide] |  | 5.34 nM |  | 
14 | C[C@]1(C(=O)Nc2nnc(C(=O)NC3CC3)s2)Cc2sc(-c3ccc(C(=O)N4CCOCC4)cc3)cc2[C@H]1c1ccccc1 [Example 21] |  |  | 22.8 nM | 60.04%
15 | CN(C)C(=O)c1ccc(-c2cc3c(s2)C[C@](C)(C(=O)Nc2nncs2)[C@@H]3c2ccccc2)cc1Cl (racemic) [Example 6] | 53.1 nM |  |  | 29.32%
16 | C[C@]1(C(=O)Nc2nncs2)Cc2sc(-c3ccc(C(=O)N4CCOCC4)cc3)cc2[C@H]1c1cccc(F)c1 (relative stereo) [Example 24, (Cis)-4-(3-fluorophenyl)-5-methyl-2-(4-(morpholine-4-carbonyl)phenyl)-N-(1,3,4-thiadiazol-2-yl)-5,6-dihydro-4H-cyclopenta[b]thiophene-5-carboxamide] |  |  | 23.1 nM | 37.80%
17 | CN(C)C(=O)c1ccc(-c2cc3c(s2)C[C@](C)(C(=O)Nc2nncs2)[C@@H]3c2ccccc2)cc1F (racemic) [Example 9] | 40.2 nM |  |  | 26.03%
18 | Cc1nnc(NC(=O)C2(C)Cc3sc(-c4ccc(C(=O)N5CCOCC5)cc4)cc3C2c2ccccc2)s1 (racemic) [Example 23] | 452 nM |  |  | 29.00%
19 | CN(C)C(=O)c1ccc(-c2cc3c(s2)C[C@](C)(C(=O)Nc2nncs2)[C@@H]3c2ccccc2)cc1 [Example 12] | 29.1 nM |  |  | 43.11%
20 | CN(C)C(=O)c1ccc(-c2cc3c(s2)C[C@](C)(C(=O)Nc2nncs2)[C@@H]3c2ccccc2)cc1 (racemic) [Example 5] | 14 nM |  |  | 43.98%
21 | C[C@]1(C(=O)Nc2nncs2)Cc2sc(-c3ccc(C(=O)N4CCOCC4)cc3)cc2[C@H]1c1ccccc1 (racemic) [Example 7] | 22.5 nM |  |  | 44.81%
22 | CN(C)C(=O)c1ccc(-c2cc3c(s2)C[C@@](C)(C(=O)Nc2nncs2)[C@H]3c2ccccc2)cc1 [Example 19] | 21.8 nM |  |  | 38.78%
